According to US20240279302A1, “OLFACTORY RECEPTOR EXPRESSING METHOD AND RESPONSE MEASUREMENT METHOD” (Kao Corporation, priority 2021, published 2024):
Where two headings read alike, the source gives them in different places.

How the values were obtained:
Assay in all cases: Luciferase assay, sulfur compounds
Type in all cases: cell-based
[1] = target: T1, OR4S2 (original olfactory receptor) (Homo sapiens, UniProt Q8NH73); settings: for response of OR4S2 / dose dependence of the response of OR4S2: in the presence of a copper ion
T1 construct: expressed in transfected cells; host or cells: HEK293
T1 sequence (Q8NH73 1-311): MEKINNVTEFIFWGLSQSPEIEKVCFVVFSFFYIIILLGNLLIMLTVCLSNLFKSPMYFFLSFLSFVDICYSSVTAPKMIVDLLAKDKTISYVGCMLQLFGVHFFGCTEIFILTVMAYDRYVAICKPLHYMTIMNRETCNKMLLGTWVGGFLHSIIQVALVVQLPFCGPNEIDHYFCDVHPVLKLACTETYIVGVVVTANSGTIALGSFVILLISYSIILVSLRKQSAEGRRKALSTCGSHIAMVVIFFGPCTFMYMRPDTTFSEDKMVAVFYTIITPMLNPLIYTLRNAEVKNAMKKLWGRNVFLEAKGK
Experimental: (§1) A reaction solution as to each consensus olfactory receptor prepared in Examples described above was prepared according to the composition shown in Table 4, left standing for 20 minutes in a clean bench, and then added to each well of a 96-well plate (Becton, Dickinson and Company). The original olfactory receptor was used as to OR4S2. Composition shown in Table 20 was used as to OR11H2 and OR4E2. Subsequently, 100 μL of HEK293 cells suspended in DMEM (Nacalai Tesque, Inc.) was inoculated at 2×10^5 cells/cm^2 to each well, and cultured for 24 hours in an incubator kept at 37° C. and 5% CO2. Cells expressing no olfactory receptor (Mock) were provided as a control.
(§2) The medium was removed from the cultures prepared in 1), and 75 μL of a test substance solution (methyl mercaptan (MeSH) (CAS: 74-93-1, Tokyo Chemical Industry Co., Ltd.), dimethyl sulfide (DMS) (CAS: 75-18-3, FUJIFILM Wako Pure Chemical Corp.), dimethyl disulfide (DMDS) (CAS: 624-92-0, Tokyo Chemical Industry Co., Ltd.), concentration range: 0 μM, 1 μM, 3 μM, 10 μM, 30 μM, 100 μM, and 300 μM, or dimethyl trisulfide (DMTS) (CAS: 3658-80-8, Tokyo Chemical Industry Co., Ltd.), concentration range: 0 μM, 0.1 μM, 0.3 μM, 1 μM, 3 μM, 10 μM, and 30 μM) prepared with a fresh medium was added thereto. Under a copper ion addition condition, the test substance solution was adjusted to contain 30 μM copper(II) chloride (FUJIFILM Wako Pure Chemical Corp.) in addition to the odorant. The cells were cultured for 4 hours in a CO2 incubator and the luciferase gene was expressed sufficiently in the cells. Luciferase activity was measured using Dual-Glo™ luciferase assay system (Promega Corp.) in accordance with the operation manual of the product. A luminescence value derived from firefly luciferase induced by test substance stimulation in each well of the 96-well plate was divided by a luminescence value derived from Renilla luciferase to calculate a value (fluc/hRluc) as a signal, which was then used in analysis. The signal under each transfection condition was normalized with the signal value (fluc/hRluc) under an odorant stimulation-free condition defined as 0% and the signal value (fluc/hRluc) by stimulation with 10 μM forskolin defined as 100%, and used as a response (%) in analysis.

consensus OR12D3 = target: T2, consensus OR12D3 (Homo sapiens, UniProt Q9UGF7, A145V/C216Y/C85S/G168H/G17S/G27V/H163R/I149T/M273V/M276I/M298L/M46I/M7V/S165N/S188G/S42A/S70C/S86T/V219I/V48I/V84L/Y177C); settings: in the presence of a copper ion
T2 construct: expressed in transfected cells; host or cells: HEK293
T2 sequence (Q9UGF7 1-315 M7V/G17S/G27V/S42A/M46I/V48I/S70C/V84L/C85S/S86T/A145V/I149T/H163R/S165N/G168H/Y177C/S188G/C216Y/V219I/M273V/M276I/M298L): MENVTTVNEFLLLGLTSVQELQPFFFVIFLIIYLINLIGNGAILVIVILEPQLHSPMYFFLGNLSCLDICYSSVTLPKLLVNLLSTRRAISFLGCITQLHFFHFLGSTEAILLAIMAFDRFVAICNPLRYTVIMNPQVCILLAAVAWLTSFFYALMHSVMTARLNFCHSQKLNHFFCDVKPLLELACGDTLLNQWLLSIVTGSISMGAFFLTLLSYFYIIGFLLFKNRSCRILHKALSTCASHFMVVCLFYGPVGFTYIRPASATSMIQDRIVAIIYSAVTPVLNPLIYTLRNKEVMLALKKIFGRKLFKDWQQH
Experimental: as §1, §2

consensus OR2L13 = target: T3, consensus OR2L13 (Homo sapiens, UniProt Q8N349, C217Y/C28L/D174N/F161Y/F208L/F25L/F309S/G145I/H228R/H49R/H6Q/I211L/I240C/I248T/I24L/L123V/L17F/L185P/R301T/S128P/S215A/T115A/T149I/T189M/Y130H/Y82F); settings: in the presence of a copper ion
T3 construct: Flag (N); Rho tag (N); expressed in transfected cells; host or cells: HEK293
T3 sequence (Q8N349 1-312 H6Q/L17F/I24L/F25L/C28L/H49R/Y82F/T115A/L123V/S128P/Y130H/G145I/T149I/F161Y/D174N/L185P/T189M/F208L/I211L/S215A/C217Y/H228R/I240C/I248T/R301T/F309S): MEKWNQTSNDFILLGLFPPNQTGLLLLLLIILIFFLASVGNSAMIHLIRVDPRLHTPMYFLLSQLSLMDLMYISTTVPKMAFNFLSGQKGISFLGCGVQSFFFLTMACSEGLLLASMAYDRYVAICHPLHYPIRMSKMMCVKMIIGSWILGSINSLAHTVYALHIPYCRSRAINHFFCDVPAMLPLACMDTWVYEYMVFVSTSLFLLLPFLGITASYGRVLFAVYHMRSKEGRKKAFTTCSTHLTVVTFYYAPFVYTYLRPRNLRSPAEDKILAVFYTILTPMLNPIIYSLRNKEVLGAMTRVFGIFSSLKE
Experimental: as §1, §2

consensus OR2T1 = target: T4, consensus OR2T1 (Homo sapiens, UniProt O43869, C277R/D138G/I77L/L118F/L265I/L324F/N134D/Q276H/S299T)
T4 construct: expressed in transfected cells; host or cells: HEK293
T4 sequence (O43869 52-369 I77L/L118F/N134D/D138G/L265I/Q276H/C277R/S299T/L324F): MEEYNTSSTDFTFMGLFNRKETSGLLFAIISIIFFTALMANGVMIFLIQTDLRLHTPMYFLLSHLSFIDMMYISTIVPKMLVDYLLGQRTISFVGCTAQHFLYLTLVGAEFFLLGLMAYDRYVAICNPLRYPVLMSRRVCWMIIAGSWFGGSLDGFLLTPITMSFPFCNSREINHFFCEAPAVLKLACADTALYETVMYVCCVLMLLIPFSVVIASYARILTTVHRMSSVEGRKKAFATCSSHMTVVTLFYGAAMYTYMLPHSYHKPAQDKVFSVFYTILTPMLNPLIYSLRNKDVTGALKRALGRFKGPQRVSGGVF
Experimental: as §1, §2

consensus OR4C15 = target: T5, consensus OR4C15 (Homo sapiens, UniProt Q8NGM1, A218G/A270V/E23K/G63A/I200A/I247V/I275T/L152F/L222F/L266F/M197L/N174D/N209I/N278T/Q295N/R137W/R299K/T258A/T88R/V55G/V87E/W233R)
T5 construct: Flag (N); Rho tag (N); expressed in transfected cells; host or cells: HEK293
Experimental: as §1, §2

[2] = in the presence of a copper ion

T5 sequence (Q8NGM1 1-311 with the stated changes limits assumed): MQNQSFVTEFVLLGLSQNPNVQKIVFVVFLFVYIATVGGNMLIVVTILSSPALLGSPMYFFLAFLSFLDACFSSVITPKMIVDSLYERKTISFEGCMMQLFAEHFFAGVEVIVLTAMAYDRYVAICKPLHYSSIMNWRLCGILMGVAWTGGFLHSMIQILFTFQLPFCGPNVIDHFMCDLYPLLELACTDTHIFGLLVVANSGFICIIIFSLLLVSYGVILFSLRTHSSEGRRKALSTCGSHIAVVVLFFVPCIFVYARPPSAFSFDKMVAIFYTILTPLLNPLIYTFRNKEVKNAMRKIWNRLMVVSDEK

| EC50 ([1]; OR4S2 (original), 30 μM CuCl2, read-out: EC50(μM) with 30 μM CuCl2) [µM] | SMILES | response of OR4S2 [1] | response of consensus OR12D3 (consensus OR12D3) | response of consensus OR2L13 (consensus OR2L13) | EC50 (consensus OR2T1) [µM] | dose dependence of the response of consensus OR2T1 (consensus OR2T1; [2]) | response of consensus OR2T1 (consensus OR2T1; [2]) | response of consensus OR4C15 (consensus OR4C15; [2]) | dose dependence of the response of OR4S2 [1] | EC50 [1] [µM] | EC50 (consensus OR4C15) [µM] | dose dependence of the response of consensus OR4C15 (consensus OR4C15; [2]) |
| --- | --- | --- | --- | --- | --- | --- | --- | --- | --- | --- | --- | --- |
|  | CS [methyl mercaptan] | responded | responded | responded | 33 | dose-dependent response | responded | responded |  |  |  |  |
| 28 | CSSSC [dimethyl trisulfide] | responded | responded | responded |  |  | responded | responded | dose-dependent response |  |  |  |
|  | CSSC [dimethyl disulfide] | responded | responded | responded |  |  | responded | responded | dose-dependent response | 530 | 615 | dose-dependent response |
